Laboratory results taken from patent US10858308B2, “Compounds and compositions” (priority 2017, dated 2020).
Marks after values point to notes of the source that are not given here.

Key:
[1] = tested on: Herpes Simplex virus-1 (HSV 1); assay: HSV 1 spread and plaque assay in Vero cells
[2] = tested on: Salmonella enterica serovar Typhimurium ATCC 14028; assay: MIC by broth dilution assay, Salmonella Typhimurium; format: cell-based; conditions: for MIC: Salmonella enterica, read-out: Sample's MIC
Protocol: (§1) Minimal inhibitory concentration (MIC) of each compound was tested by broth dilution assay.
(§2) • McFarland standard 0.5 • Falcon round-bottom 5 ml tubes • Disposable loops (1 μl and 10 μl) • Graduated pipettes (20 μl-1000 μl) • Disposable Petri dishes Media • Sterile normal saline • TSB (Tryptic Soy Broth) • TSA (Tryptic Soy Agar) Bacterial and Fungal strains • Salmonella enterica serovar Typhimurium ATCC 14028 • Staphylococcus aureus ATCC 6538 • Candida albicans ATCC 10231
(§3) Compounds 2, 3 and 4 were diluted in dimethyl sulfoxide (DMSO) at 10 mg/ml and were future 2-fold diluted for testing in TSB.
(§4) From a pure o/n culture, material from at least 3-4 colonies was chosen and suspended totally in 4 ml saline in tubes. The suspension was mixed.
(§5) The turbidity of inoculum was adjusted to match that of standard by comparing visually with the McFarland 0.5 standard using white paper with black lines as background.
(§6) The McFarland 0.5 suspension were diluted as follows for the species tested at this course:
Gr-neg.: 10 μl McFarl. 0.5 into 10 ml broth
(§7) The suspensions were used for inoculation within 15 minutes.
(§8) The Falcon round-bottom 5 ml tubes were inoculated with 500 μl of the inoculum suspension with 500 μl two-fold dilutions of antimicrobial agent using a graduated pipette
(§9) Tubes were sealed and incubated at 37° C. for 18-22 hours. This was done to avoid losing growth media and to avoid cross contamination.
(§10) McFarland 0.5 is approximately 10^8 CFU/ml. Standardization of inoculum is essential because the interpretation of the results is based on a certain inoculum.
(§11) Each tube contained approximately 5×10^5-1×10^6 CFU/ml after inoculation of bacteria and […] 5×10^3-1×10^4 CFU/ml of yeast.
(§12) Purity of the inoculum suspension was checked.
(§13) Growth in the 3 positive control tubes was checked.
(§14) Minimal inhibitory concentration (MIC) was recorded as the lowest concentration of antimicrobial agent with no visible growth.

[3] = tested on: Candida albicans ATCC 10231; assay: MIC by broth dilution assay, Candida albicans; format: cell-based; conditions: 4 experiments, inoculum 3-6.5 × 10^3 cfu/ml, range bacteriostatic-bactericide concentration; for Sample's MIC: 37° C. 18-22 hours; for MIC: ATCC10231, 37° C. 18-22 hours, read-out: Sample's MIC
Protocol: as §1, §2, §3, §4, §5, §6, §7, §8, §9, §10, §11, §12, §13, §14

[4] = tested on: Staphylococcus aureus ATCC 6538; assay: MIC by broth dilution assay, Staphylococcus aureus; format: cell-based; conditions: ATCC6538, 37° C. 18-22 hours, 4 experiments, inoculum 1.2-2.1 × 10^6 cfu/ml, range bacteriostatic-bactericide concentration, read-out: Sample's MIC
Protocol: as §1, §2, §3, §4, §5, §6
Gr-pos.: 50 μl McFarl. 0.5 into 10 ml broth
as §7
The Falcon round-bottom 5 ml tubes were inoculated with 500 μl of the inoculum suspension with 500 μl two-fold dilutions of antimicrobial agent using a graduated pipette […]
as §14

Vaccinia virus (WR-VV) = format: cell-based; set-up: dose or concentration left out as unconfirmed; conditions: BSC 40 cells pre-treated
Surfactant activity = format: physicochemical
pH of aqueous solution = format: physicochemical
[5] = in the presence of 100 μg/ml of the compounds
[6] = in the presence of the compounds

Molecule	melting point [°C]	HSV-1 infectivity reduced by [1, 5] [%]	HSV-1 infectivity reduced by [1, 6] [%]	MIC [2] [mg/L]	Sample's MIC [3]	MIC [3] [mg/L]	MIC [4] [mg/L]	inhibitory effect on HSV 1 spreading and plaque number ([1]; pre-treated, liquid and agar plaque assay, two days of infection, dose dependent)	inhibition of Vaccinia virus plaque formation (Vaccinia virus (WR-VV))	Surfactant activity (Surfactant activity)	Aqueous solution pH (pH of aqueous solution)	Sample's MIC ([2]; Salmonella enterica serovar Typhimurium ATCC 14028, broth dilution, 37° C. 18-22 hours, 4 experiments, inoculum 5 × 10^3 cfu/ml, range bacteriostatic-bactericide concentration) [mg/L]
Cc1ccc(C(C)C)c(OC(=O)C[N+](C)(C)CCCCCCCCCC[N+](C)(C)CC(=O)Oc2cc(C(C)C)ccc2C)c1 [Compound 2, N^1-{2-[2-methyl-5-(propan-2-yl)phenoxy]-2-oxoethyl}-N^1,N^1,N^10,N^10-tetramethyl-N^10-{2-[5-methyl-2-(propan-2-yl)phenoxy]-2oxoethyl}decane-1,10-bis(aminium) dichloride]	92 to 96	80	50	62.5 to 125	62.5-125* μg/ml	62.5 to 125	31.2 to 62.5	–	–	–	–	–
Cc1ccc(C(C)C)c(OC(=O)C[N+](C)(C)CCCCCCCCCC[N+](C)(C)CCCCCCCCCC[N+](C)(C)CC(=O)Oc2cc(C(C)C)ccc2C)c1 [Compound 3, N^1-{{2-[2-methyl-5-(propan-2-yl)phenoxy]-(2-oxoethyldimethyl)azaniumyl bromide}decyl}-N^10-{2-[5-methyl-2-(propan-2-yl)phenoxy]-2oxoethyl}-N^1,N^1,N^1,N^10,N^10-tetramethyldecane-1,10-bis(aminium) dichloride]	–	80	50	31.2 to 62.5	–	31.2 to 62.5	15.6 to 31.2	strong inhibitory effect	none of compounds 2 or 3 inhibited Vaccinia virus (VV) plaque formation	Displays Surfactant Activity	7.2	–
N^1-{2-[2-methyl-5-(propan-2-yl)phenoxy]-2-oxoethyl}-N^1,N^1,N^10,N^10-tetramethyl-N^10-{2-[5-methyl-2-(propan-2-yl)phenoxy]-2oxoethyl}decane-1,10-bis(aminium) dichloride [Compound 4]	–	–	–	–	31.25 to 62.5 µg/mL	–	–	–	–	–	–	31.25 to 62.5
